Patent publication US7989633B2, “4-Chromenonyl-1,4-dihydropyridines and their use” (Bayer Schering Pharma Aktiengesellschaft, priority 2005, dated 2011)
pIC50: −log10 of the molar value.

Target: T1, human mineralocorticoid receptor (MR) (Homo sapiens, UniProt P08235)
T1 construct: expressed in transfected cells
T1 sequence (P08235 734-984 limits assumed): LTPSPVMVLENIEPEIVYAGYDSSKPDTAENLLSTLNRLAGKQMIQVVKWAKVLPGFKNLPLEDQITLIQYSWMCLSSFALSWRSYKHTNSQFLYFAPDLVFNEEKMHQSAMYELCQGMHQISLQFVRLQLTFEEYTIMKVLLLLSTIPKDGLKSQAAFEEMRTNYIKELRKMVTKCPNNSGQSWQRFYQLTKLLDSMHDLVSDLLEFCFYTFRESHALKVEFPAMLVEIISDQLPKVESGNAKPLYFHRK
Assay: Cellular in vitro assay to determine the inhibitory MR activity (GAL4-MR chimera luciferase reporter in CHO K1 cells)
Format: cell-based
Conditions: GAL4-MR ligand-binding domain chimera in CHO K1 cells, agonist aldosterone
Excerpt: 1. Cellular In Vitro Assay to Determine the Inhibitory MR Activity and MR Selectivity Compared with Other Steroid Hormone Receptors
Antagonists of the human mineralocorticoid receptor (MR) are identified, and the activity of the compounds described herein is quantified with the aid of a recombinant cell line. The cell is originally derived from a hamster ovary epithelial cell (Chinese Hamster Ovary, CHO K1, ATCC: American Type Culture Collection, VA 20108, USA).
An established chimera system in which the ligand-binding domains of human steroid hormone receptors are fused to the DNA-binding domain of the yeast transcription factor GAL4 is used in this CHO K1 cell line. The GAL4-steroid hormone receptor chimeras produced in this way are cotransfected and stably expressed with a reporter construct in the CHO cells.
To generate the GAL4-steroid hormone receptor chimeras, the GAL4 DNA binding domain (amino acids 1-147) from the vector pFC2-dbd (from Stratagene) is cloned with the PCR-amplified ligand-binding domains of the mineralocorticoid receptor (MR, amino acids 734-985), of the glucocorticoid receptor (GR, amino acids 443-777), of the progesterone receptor (PR, amino acids 680-933) and of the androgen receptor (AR, amino acids 667-919) into the vector pIRES2 (from Clontech). The reporter construct, which comprises five copies of the GAL4 binding site upstream of a thymidine kinase promoter, leads to expression of firefly-luciferase (Photinus pyralis) after activation and binding of the GAL4-steroid hormone receptor chimeras by the respective specific agonists aldosterone (MR), dexamethasone (GR), progesterone (PR) and dihydrotestosterone (AR).
The MR, GR, PR and AR cells are plated out in medium (Optimem, 2.5% FCS, 2 mM glutamine, 10 mM HEPES) in 96- (or 384- or 1536-) well microtiter plates on the day before the assay and are kept in a cell incubator (96% humidity, 5% v/v CO2, 37° C.). On the day of the assay, the substances to be tested are taken up in the abovementioned medium and added to the cells. About 10 to 30 minutes after addition of the test substances, the respective specific agonists of the steroid hormone receptors are added. After a further incubation time of 5 to 6 hours, the luciferase activity is measured with the aid of a video camera. The measured relative light units as a function of the substance concentration result in a sigmoidal stimulation curve. The IC50 values are calculated with the aid of the GraphPad PRISM computer program (Version 3.02).

SMILES | pIC50
CCOC(=O)C1=C(C)NC(C)=C(C(C)=O)C1c1cccc2c(=O)cc(C)oc12 (racemic) [Example 1 (Racemate), Ethyl 5-acetyl-2,6-dimethyl-4-(2-methyl-4-oxo-4H-chromen-8-yl)-1,4-dihydropyridine-3-carboxylate] | 7.12
CCOC(=O)C1=C(C)NC(C)=C(C(C)=O)C1c1cccc2c(=O)cc(C)oc12 (single isomer, unassigned) [Example 1 (Enantiomer 2), Ethyl 5-acetyl-2,6-dimethyl-4-(2-methyl-4-oxo-4H-chromen-8-yl)-1,4-dihydropyridine-3-carboxylate] | 7.37
CC(=O)C1=C(C)NC(C)=C(C(=O)OC2CCCC2)C1c1cccc2c(=O)cc(C)oc12 (stereo not shown) [Example 2, Cyclopentyl 5-acetyl-2,6-dimethyl-4-(2-methyl-4-oxo-4H-chromen-8-yl)-1,4-dihydropyridine-3-carboxylate] | 7.66
CC(=O)C1=C(C)NC(C)=C(C(=O)OC(C)C)C1c1cccc2c(=O)cc(C)oc12 (stereo not shown) [Example 3, Isopropyl 5-acetyl-2,6-dimethyl-4-(2-methyl-4-oxo-4H-chromen-8-yl)-1,4-dihydropyridine-3-carboxylate] | 7.41
COC(=O)C1=C(C)NC(C)=C(C(C)=O)C1c1cccc2c(=O)cc(C)oc12 (stereo not shown) [Example 4, Methyl 5-acetyl-2,6-dimethyl-4-(2-methyl-4-oxo-4H-chromen-8-yl)-1,4-dihydropyridine-3-carboxylate] | 6.63
CC1=C(C(=O)OC(C)C)C(c2cccc3c(=O)cc(C)oc23)C(C(=O)C(F)(F)F)=C(C)N1 (stereo not shown) [Example 8, Isopropyl 2,6-dimethyl-4-(2-methyl-4-oxo-4H-chromen-8-yl)-5-(trifluoroacetyl)-1,4-dihydro-pyridine-3-carboxylate] | 7.72
CCOC(=O)C1=C(C)NC(C)=C(C(C)=O)C1c1ccc(F)c2c(=O)cc(C)oc12 (stereo not shown) [Example 11, Ethyl 5-acetyl-2,6-dimethyl-4-(5-fluoro-2-methyl-4-oxo-4H-chromen-8-yl)-1,4-dihydropyridine-3-carboxylate] | 7.13
CCOC(=O)C1=C(C)NC(C)=C(C(=O)c2ccccc2)C1c1cccc2c(=O)cc(C)oc12 (stereo not shown) [Example 14, Ethyl 5-benzoyl-2,6-dimethyl-4-(2-methyl-4-oxo-4H-chromen-8-yl)-1,4-dihydropyridine-3-carboxylate] | 6.98
COC(=O)C1=C(C)NC(C)=C(C(=O)CC2CCC2)C1c1cccc2c(=O)cc(C)oc12 (stereo not shown) [Example 34, Methyl 5-(cyclobutylacetyl)-2,6-dimethyl-4-(2-methyl-4-oxo-4H-chromen-8-yl)-1,4-dihydro-pyridine-3-carboxylate] | 7.74
COC(=O)C1=C(C)NC(C)=C(C(=O)c2ccc(C)cc2)C1c1cccc2c(=O)cc(C)oc12 (stereo not shown) [Example 37, Methyl 2,6-dimethyl-5-(4-methylbenzoyl)-4-(2-methyl-4-oxo-4H-chromen-8-yl)-1,4-dihydro-pyridine-3-carboxylate] | 7.57
